# Where two headings read alike, the source gives them in different places.
# Experiments:
# rat CB2 = target: T1, rat CB2 (Rattus norvegicus, UniProt Q9QZN9); assay: rat CB2 radioligand binding assay ([3H]CP-55,940 competition); design: expressed in transfected cells; host or cells: HEK293
# T1 sequence (Q9QZN9 1-360): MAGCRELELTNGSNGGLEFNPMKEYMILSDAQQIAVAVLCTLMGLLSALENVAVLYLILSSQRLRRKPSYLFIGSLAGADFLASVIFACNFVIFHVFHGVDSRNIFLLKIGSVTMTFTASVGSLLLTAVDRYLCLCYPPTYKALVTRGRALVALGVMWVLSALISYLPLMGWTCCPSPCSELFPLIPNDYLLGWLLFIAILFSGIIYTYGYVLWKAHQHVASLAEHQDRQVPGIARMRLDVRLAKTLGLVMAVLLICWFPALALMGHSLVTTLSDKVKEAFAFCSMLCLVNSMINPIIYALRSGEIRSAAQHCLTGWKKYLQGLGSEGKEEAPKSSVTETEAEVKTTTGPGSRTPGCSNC
# human CB2 receptors = target: T2, human CB2 receptors (Homo sapiens, UniProt P34972); assay: human CB2 radioligand binding assay ([3H]CP-55,940 competition)
# T2 construct: expressed in transfected cells; host or cells: HEK293
# T2 sequence (P34972 whole entry): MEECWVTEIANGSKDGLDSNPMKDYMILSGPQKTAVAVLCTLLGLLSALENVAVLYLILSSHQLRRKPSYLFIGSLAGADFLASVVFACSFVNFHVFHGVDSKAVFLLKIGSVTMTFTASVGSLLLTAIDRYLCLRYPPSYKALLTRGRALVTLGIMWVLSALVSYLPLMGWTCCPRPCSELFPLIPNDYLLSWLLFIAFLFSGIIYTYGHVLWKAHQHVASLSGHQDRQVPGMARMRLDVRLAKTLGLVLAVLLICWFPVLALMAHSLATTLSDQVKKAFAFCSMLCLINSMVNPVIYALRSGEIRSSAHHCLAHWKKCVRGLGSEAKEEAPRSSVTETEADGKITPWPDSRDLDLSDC
# [1] = HEK293 membranes, 0.5 nM [3H]CP-55,940, read-out: human CB2 (Ki)
# [2] = HEK293 membranes, 0.5 nM [3H]CP-55,940, read-out: rat CB2 (Ki)
SMILES,Ki (rat CB2),Ki (human CB2 receptors),Ki (human CB2 receptors; [1]),Ki (rat CB2; [2])
"CCCCc1cn(C(C)(C)C)s/c1=N\C(=O)[C@]1(C)CC[C@H](C(=O)N2CCC2)C1(C)C [Example 178, (1R,3S)-3-(azetidin-1-ylcarbonyl)-N-[(5Z)-4-butyl-2-tert-butylisothiazol-5(2H)-ylidene]-1,2,2-trimethylcyclopentanecarboxamide]",0.046 µM,0.17 µM,–,–
"CCCCc1cn(C(C)(C)C)s/c1=N\C(=O)[C@]1(C)CC[C@H](C(=O)N(C)C)C1(C)C [Example 179, (1R,3S)—N^1-[(5Z)-4-butyl-2-tert-butylisothiazol-5(2H)-ylidene]-N^3,N^3,1,2,2-pentamethylcyclopentane-1,3-dicarboxamide]",0.067 µM,0.16 µM,–,–
"CCCCc1cn(C(C)(C)C)s/c1=N\C(=O)[C@]1(C)CC[C@H](C(=O)N2CC(O)C2)C1(C)C [Example 180, (1R,3S)—N-[(5Z)-4-butyl-2-tert-butylisothiazol-5(2H)-ylidene]-3-[(3-hydroxyazetidin-1-yl)carbonyl]-1,2,2-trimethylcyclopentanecarboxamide]",0.037 µM,–,0.26 µM,–
"CCCCc1cn(C(C)(C)C)s/c1=N\C(=O)[C@H]1CC[C@@](C)(C(=O)O)C1(C)C [Example 181, (1R,3S)-3-({[(5Z)-4-butyl-2-tert-butylisothiazol-5(2H)-ylidene]amino}carbonyl)-1,2,2-trimethylcyclopentanecarboxylic acid]",0.015 µM,0.16 µM,–,–
"CCCCc1cn(C(C)(C)C)s/c1=N\C(=O)[C@H]1CC[C@@](C)(C(=O)NC)C1(C)C [Example 182, (1R,3S)—N-[(5Z)-4-butyl-2-tert-butylisothiazol-5(2H)-ylidene]-N^1,1,2,2-tetramethylcyclopentane-1,3-dicarboxamidetetramethylcyclopentane-1,3-dicarboxamide]",0.327 µM,0.35 µM,–,–
"CCCCc1cn(C(C)(C)C)s/c1=N\C(=O)[C@H]1CC[C@@](C)(C(=O)N(C)C)C1(C)C [Example 183, (1R,3S)—N^3-[(5Z)-4-butyl-2-tert-butylisothiazol-5(2H)-ylidene]-N^1,N^1,1,2,2-pentamethylcyclopentane-1,3-dicarboxamide]",0.04 µM,–,0.21 µM,–
"CCCCc1cn(C(C)(C)C)s/c1=N\C(=O)[C@]1(C)CC[C@H](C(=O)N2CC(F)(F)C2)C1(C)C [Example 185, (1R,3S)—N-[(5Z)-4-butyl-2-tert-butylisothiazol-5(2H)-ylidene]-3-[(3,3-difluoroazetidin-1-yl)carbonyl]-1,2,2-trimethylcyclopentanecarboxamide]",0.049 µM,–,0.113 µM,–
"CCCCc1cn(C(C)(C)C)s/c1=N\C(=O)OCC(C)(C)C [Example 187, Neopentyl (5Z)-4-butyl-2-tert-butylisothiazol-5(2H)-ylidenecarbamate]",0.0082 µM,0.038 µM,–,–
"CCCCc1cn(C(C)(C)C)s/c1=N\C(=O)OC12CC3CC(CC(C3)C1)C2 [Example 189, 1-adamantyl (5Z)-4-butyl-2-tert-butylisothiazol-5(2H)-ylidenecarbamate]",0.0053 µM,0.039 µM,–,–
"CCCCc1cn(C(C)(C)C)s/c1=N\C(=O)N[C@H](C(=O)NC)C(C)(C)C [Example 190, N^2-({[(5Z)-4-butyl-2-tert-butylisothiazol-5(2H)-ylidene]amino}carbonyl)-N^1,3-dimethyl-L-valinamide]",0.0024 µM,0.0024 µM,–,–
"CCCCc1cn(C(C)(C)C)s/c1=N\C(=O)c1cc(C(F)(F)F)ccc1OC[C@@H]1CCC(=O)N1 [Example 194, N-[(5Z)-4-butyl-2-tert-butylisothiazol-5(2H)-ylidene]-2-{[(2S)-5-oxopyrrolidin-2-yl]methoxy}-5-(trifluoromethyl)benz amide]",0.041 µM,–,0.17 µM,–
"CC(C)Cc1cn(C(C)(C)C)s/c1=N\C(=O)c1cc(C(F)(F)F)ccc1OC[C@@H]1CCCN1C [Example 197, N-[(5Z)-2-tert-butyl-4-isobutylisothiazol-5(2H)-ylidene]-2-{[(2S)-1-methylpyrrolidin-2-yl]methoxy}-5-(trifluoromethyl)benzamide]",–,–,0.26 µM,0.156 µM
"CCCCc1cn(C(C)(C)C)s/c1=N\C(=O)c1cc(C(F)(F)F)ccc1OCc1cnccn1 [Example 198, N-[(5Z)-4-butyl-2-tert-butylisothiazol-5(2H)-ylidene]-2-(pyrazin-2-ylmethoxy)-5-(trifluoromethyl)benzamide]",–,–,0.25 µM,0.111 µM
"CC(C)Cc1cn(C(C)(C)C)s/c1=N\C(=O)c1cc(C(F)(F)F)ccc1OCc1ccccn1 [Example 200, N-[(5Z)-2-tert-butyl-4-isobutylisothiazol-5(2H)-ylidene]-2-(pyridin-2-ylmethoxy)-5-(trifluoromethyl)benzamide]",–,–,0.47 µM,0.391 µM
"CCCCc1cn(C(C)(C)C)s/c1=N\C(=O)[C@]1(C)CC[C@H](C(=O)NC2CC2)C1(C)C [Example 208, (1R,3S)—N^1-[(5Z)-4-butyl-2-tert-butylisothiazol-5(2H)-ylidene]-N^3-cyclopropyl-1,2,2-trimethylcyclopentane-1,3-dicarboxamide]",0.011 µM,–,0.2 µM,–
"CCCCc1cn(C(C)(C)C)s/c1=N\C(=O)[C@@H]1CC[C@](C)(C(=O)NCCC)C1(C)C [Example 211, (1S,3R)—N^3-[(5Z)-4-butyl-2-tert-butylisothiazol-5(2H)-ylidene]-1,2,2-trimethyl-N^1-propylcyclopentane-1,3-dicarboxamide]",–,–,0.27 µM,0.111 µM
"CCCCc1cn(C(C)(C)C)s/c1=N\C(=O)[C@]1(C)CC[C@H](C(=O)NCCCO)C1(C)C [Example 213, (1R,3S)—N^1-[(5Z)-4-butyl-2-tert-butylisothiazol-5(2H)-ylidene]-N^3-(3-hydroxypropyl)-1,2,2-trimethylcyclopentane-1,3-dicarboxamide]",0.045 µM,–,0.14 µM,–
"CCCCc1cn(C(C)(C)C)s/c1=N\C(=O)[C@]1(C)CC[C@H](C(=O)NC[C@H]2CCCO2)C1(C)C [Example 214, (1R,3S)—N^1-[(5Z)-4-butyl-2-tert-butylisothiazol-5(2H)-ylidene]-1,2,2-trimethyl-N^3-[(2R)-tetrahydrofuran-2-ylmethyl]cyclopentane-1,3-dicarboxamide]",0.083 µM,0.13 µM,–,–
"CCCCc1cn(C(C)(C)C)s/c1=N\C(=O)[C@]1(C)CC[C@H](NC(=O)OC)C1(C)C [Example 215, Methyl (1S,3R)-3-({[(5Z)-4-butyl-2-tert-butylisothiazol-5(2H)-ylidene]amino}carbonyl)-2,2,3-trimethylcyclopentylcarbamate]",0.091 µM,0.069 µM,–,–
"CCCCc1cn(C(C)(C)C)s/c1=N\C(=O)[C@]1(C)CC[C@H](NC(=O)OCC)C1(C)C [Example 216, Ethyl (1S,3R)-3-({[(5Z)-4-butyl-2-tert-butylisothiazol-5(2H)-ylidene]amino}carbonyl)-2,2,3-trimethylcyclopentylcarbamate]",–,–,0.16 µM,0.299 µM
"CCCCc1cn(C(C)(C)C)s/c1=N\C(=O)[C@@]1(C)CC[C@@H](C(=O)NCCC)C1(C)C [Example 219, (1S,3R)—N^1-[(5Z)-4-butyl-2-tert-butylisothiazol-5(2H)-ylidene]-1,2,2-trimethyl-N^3-propylcyclopentane-1,3-dicarboxamide]",–,–,0.204 µM,0.159 µM
"CCCCc1cn(C(C)(C)C)s/c1=N\C(=O)[C@@H]1CC[C@](C)(C2=NCCO2)C1(C)C [Example 224, (1R,3S)—N-[(5Z)-4-butyl-2-tert-butylisothiazol-5(2H)-ylidene]-3-(4,5-dihydro-1,3-oxazol-2-yl)-2,2,3-trimethylcyclopentanecarboxamide]",0.02 µM,0.038 µM,–,–
"CCCCc1cn(C(C)(C)C)s/c1=N\C(=O)[C@@]1(C)CC[C@@H](C(=O)NC2CCC2)C1(C)C [Example 225, (1S,3R)—N^1-[(5Z)-4-butyl-2-tert-butylisothiazol-5(2H)-ylidene]-N^3-cyclobutyl-1,2,2-trimethylcyclopentane-1,3-dicarboxamide]",–,–,0.29 µM,0.423 µM
"CCCCc1cn(C(C)(C)C)s/c1=N\C(=O)[C@]1(C)CC[C@H](C(=O)NC[C@@H]2CCCO2)C1(C)C [Example 226, (1R,3S)—N^1-[(5Z)-4-butyl-2-tert-butylisothiazol-5(2H)-ylidene]-1,2,2-trimethyl-N^3-[(2S)-tetrahydrofuran-2-ylmethyl]cyclopentane-1,3-dicarboxamide]",0.132 µM,0.25 µM,–,–
"CCCCc1cn(C(C)(C)C)s/c1=N\C(=O)[C@@]1(C)CC[C@@H](C2=NCCO2)C1(C)C [Example 231, (1S,3R)—N-[(5Z)-4-butyl-2-tert-butylisothiazol-5(2H)-ylidene]-3-(4,5-dihydro-1,3-oxazol-2-yl)-1,2,2-trimethylcyclopentanecarboxamide]",0.011 µM,0.051 µM,–,–
"CCCCc1cn(C(C)(C)C)s/c1=N\C(=O)[C@H]1CC[C@@](C)(C2=NCCO2)C1(C)C [Example 232, (1S,3R)—N-[(5Z)-4-butyl-2-tert-butylisothiazol-5(2H)-ylidene]-3-(4,5-dihydro-1,3-oxazol-2-yl)-2,2,3-trimethylcyclopentanecarboxamide]",0.018 µM,0.045 µM,–,–
"CCCCc1cn(C(C)(C)C)s/c1=N\C(=O)[C@]1(C)CC[C@H](C(=O)NCc2ccccn2)C1(C)C [Example 234, (1R,3S)—N^1-[(5Z)-4-butyl-2-tert-butylisothiazol-5(2H)-ylidene]-1,2,2-trimethyl-N^3-(pyridin-2-ylmethyl)cyclopentane-1,3-dicarboxamide]",–,–,0.32 µM,0.142 µM

# — patent publication US8501794B2, “Compounds as cannabinoid receptor ligands” (priority 2007, dated 2013)
